One data set addresses T1, mouse DHP-I (Mus musculus, UniProt P31428).
T1 sequence (P31428 17-384): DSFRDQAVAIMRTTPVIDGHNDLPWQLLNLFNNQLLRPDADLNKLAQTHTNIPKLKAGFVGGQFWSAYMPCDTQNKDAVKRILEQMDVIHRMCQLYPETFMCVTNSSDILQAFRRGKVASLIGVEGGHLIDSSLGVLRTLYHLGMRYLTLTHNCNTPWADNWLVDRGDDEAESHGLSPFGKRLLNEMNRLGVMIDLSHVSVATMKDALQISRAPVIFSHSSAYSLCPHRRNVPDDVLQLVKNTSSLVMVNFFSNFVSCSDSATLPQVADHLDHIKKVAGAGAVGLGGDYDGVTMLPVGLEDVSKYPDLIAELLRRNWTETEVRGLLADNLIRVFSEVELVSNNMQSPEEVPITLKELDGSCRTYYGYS
Kind of data set: Test 2: stability against DHP-I (mouse). Conditions: partly purified Mouse DHP-I; 100 μg (titer)/ml; 37° C., 3 hours; HPLC.

The subject of another data set is E. hirae ATCC8043. Kind of data set: Test 1: Anti-Microbial Activities (MIC). The settings on record: Sensitivity Disk agar-N+5% Horse blood, inoculants 10^6 CFU/ml; for MIC: Enterococcus hirae, read-out: minimum inhibiting concentrations (MIC). In kind it is cell-based. The procedure:
(§1) The minimum inhibiting concentrations (MIC, μg/ml) of the compounds according to the present invention to various pathogenic bacteria was measured in accordance with the method described in CHEMOTHERAPY, vol. 16, No. 1,99, 1968. The culture medium for measurement was Sensitivity Disk agar-N+5% Horse blood, and the amount of inoculants was 10^6 CFU/ml.

Another data set relates to P. vulgaris GN7919. Kind of data set: Test 1: Anti-Microbial Activities (MIC). In kind it is cell-based. The settings on record: Sensitivity Disk agar-N+5% Horse blood, inoculants 10^6 CFU/ml; for MIC: Proteus vulgaris, read-out: minimum inhibiting concentrations (MIC). Here is the method:
as §1

For a further data set, the system named is E. coli NIHJ JC-2. Kind of data set: Test 1: Anti-Microbial Activities (MIC). The settings on record: inoculants 10^6 CFU/ml; for MIC: Escherichia coli, NIHJJC2, Sensitivity Disk agar-N+5% Horse blood, read-out: minimum inhibiting concentrations (MIC). In kind it is cell-based. The procedure: as §1
The next data set has as its system S. pneumoniae PRC9. Kind of data set: Test 1: Anti-Microbial Activities (MIC). In kind it is cell-based. Conditions: S. pneumoniae PRC9, penicillin-hyperresistant strain (PRSP), Sensitivity Disk agar-N+5% Horse blood, inoculants 10^6 CFU/ml; for MIC: Streptococcus pneumoniae, read-out: minimum inhibiting concentrations (MIC). Here is the method:
as §1

For the next data set, the system named is M. catarrhalis W-0500. Kind of data set: Test 1: Anti-Microbial Activities (MIC). In kind it is cell-based. Conditions: inoculants 10^6 CFU/ml; for MIC: Moraxella catarrhalis, W0500, Sensitivity Disk agar-N+5% Horse blood, read-out: minimum inhibiting concentrations (MIC). The procedure:
as §1

For another data set, the system named is S. aureus 209P JC-1. Kind of data set: Test 1: Anti-Microbial Activities (MIC). In kind it is cell-based. The settings on record: Sensitivity Disk agar-N+5% Horse blood, inoculants 10^6 CFU/ml; for MIC: Staphylococcus aureus, read-out: minimum inhibiting concentrations (MIC). The procedure: as §1
The next data set concerns E. faecalis W-73. Kind of data set: Test 1: Anti-Microbial Activities (MIC). The settings on record: inoculants 10^6 CFU/ml; for MIC: Enterococcus faecalis, W73, Sensitivity Disk agar-N+5% Horse blood, read-out: minimum inhibiting concentrations (MIC). In kind it is cell-based. Here is the method:
as §1

For the next data set, the system named is C. freundii GN346. Kind of data set: Test 1: Anti-Microbial Activities (MIC). In kind it is cell-based. Conditions: Sensitivity Disk agar-N+5% Horse blood, inoculants 10^6 CFU/ml; for MIC: Citrobacter freundii, read-out: minimum inhibiting concentrations (MIC). Here is the method: as §1
The next data set concerns H. influenzae PRC44. Kind of data set: Test 1: Anti-Microbial Activities (MIC). In kind it is cell-based. The settings on record: Sensitivity Disk agar-N+5% Horse blood, inoculants 10^6 CFU/ml; for MIC: Haemophilus influenzae, read-out: minimum inhibiting concentrations (MIC). Here is the method: as §1
In the next data set the test system is K. pneumoniae PCI602. Kind of data set: Test 1: Anti-Microbial Activities (MIC). In kind it is cell-based. The settings on record: Sensitivity Disk agar-N+5% Horse blood, inoculants 10^6 CFU/ml; for MIC: Klebsiella pneumoniae, read-out: minimum inhibiting concentrations (MIC). Here is the method:
as §1

For another data set, the system named is H. influenzae PRC2. Kind of data set: Test 1: Anti-Microbial Activities (MIC). In kind it is cell-based. The settings on record: Sensitivity Disk agar-N+5% Horse blood, inoculants 10^6 CFU/ml; for MIC: Haemophilus influenzae, read-out: minimum inhibiting concentrations (MIC). The procedure: as §1
For a further data set, the system named is S. aureus M126. Kind of data set: Test 1: Anti-Microbial Activities (MIC). In kind it is cell-based. The settings on record: S. aureus M126, methicillin-hyperresistant strain (MRSA), Sensitivity Disk agar-N+5% Horse blood, inoculants 10^6 CFU/ml; for MIC: Staphylococcus aureus, read-out: minimum inhibiting concentrations (MIC). The procedure: as §1
A further data set relates to S. epidermidis ATCC14990. Kind of data set: Test 1: Anti-Microbial Activities (MIC). In kind it is cell-based. Conditions: Sensitivity Disk agar-N+5% Horse blood, inoculants 10^6 CFU/ml; for MIC: Staphylococcus epidermidis, read-out: minimum inhibiting concentrations (MIC). Here is the method:
as §1

A further data set concerns the target T2, porcine renal DHP-I (Sus scrofa, UniProt P22412).
T2 sequence (P22412 17-384): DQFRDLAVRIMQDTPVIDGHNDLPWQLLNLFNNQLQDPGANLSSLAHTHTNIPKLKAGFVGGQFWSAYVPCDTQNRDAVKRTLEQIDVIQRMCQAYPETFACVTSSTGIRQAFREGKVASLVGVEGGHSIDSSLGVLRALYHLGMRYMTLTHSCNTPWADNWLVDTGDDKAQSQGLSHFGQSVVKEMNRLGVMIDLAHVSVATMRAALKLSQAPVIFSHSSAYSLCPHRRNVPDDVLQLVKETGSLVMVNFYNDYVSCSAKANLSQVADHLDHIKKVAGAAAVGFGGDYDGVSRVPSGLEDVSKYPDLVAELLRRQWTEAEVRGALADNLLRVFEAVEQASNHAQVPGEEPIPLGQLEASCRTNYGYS
Kind of data set: Test 2: stability against DHP-I (porcine). Conditions: partly purified Porcine DHP-I, 100 μg (titer)/ml, 37° C., HPLC.

The mark [1] stands for this setting: Sensitivity Disk agar-N+5% Horse blood.

In brackets after ≈: the same amount, converted by molar mass. Some results are limits rather than exact numbers.

For `C[C@@H](O)[C@H]1C(=O)N2C(C(=O)O)=C(SCCN=CN)C[C@H]12` [Compound A, imipenem, reference compound], the “residual amounts (%) after 3 hours” value is on record as 14% at mouse DHP-I and less than 0.3% at porcine renal DHP-I. The MIC in the data set with E. hirae ATCC8043 was 0.78 µg/mL (≈ 2.61 µM); in the data set on P. vulgaris GN7919 it was 0.1 µg/mL (≈ 0.334 µM); in the data set with E. coli NIHJ JC-2, 0.1 µg/mL (≈ 0.334 µM); in the data set with S. pneumoniae PRC9 it was 0.2 µg/mL (≈ 0.668 µM); with M. catarrhalis W-0500, 0.05 µg/mL (≈ 0.167 µM); in the data set on S. aureus 209P JC-1 it was less than 0.025 µg/mL. For the same compound, the MIC was 0.78 µg/mL (≈ 2.61 µM) in the data set with E. faecalis W-73; 0.2 µg/mL (≈ 0.668 µM) in the data set with C. freundii GN346; 12.5 µg/mL (≈ 41.8 µM) in the data set on H. influenzae PRC44; 0.2 µg/mL (≈ 0.668 µM) in the data set on K. pneumoniae PCI602; 0.78 µg/mL (≈ 2.61 µM) in the data set with H. influenzae PRC2; 25 µg/mL (≈ 83.5 µM) in the data set with S. aureus M126. Besides, the MIC in the data set with S. epidermidis ATCC14990 is less than 0.025 µg/mL.

As to `C[C@@H](O)[C@H]1C(=O)N2C(C(=O)O)=C(S[C@@H]3CN[C@H](C(=O)N(C)C)C3)[C@H](C)[C@H]12` [Compound C, meropenem, reference compound], the “residual amounts (%) after 3 hours” value on mouse DHP-I is 8.5%; on porcine renal DHP-I, 41%.

As to `CC(=O)c1nc(C)n2cc(C3=C(C(=O)[O-])N4C(=O)[C@H]([C@@H](C)O)[C@H]4[C@H]3C)sc12.[Na+]` [Example 19, Sodium (1S,5R,6S)-2-(7-Acetyl-5-methylimidazo[5,1-b]thiazol-2-yl)-6-((1R)-1-hydroxyethyl)-1-methyl-1-carbapen-2-em-3-carboxylate], the “residual amounts (%) after 3 hours” value is listed as 45% on mouse DHP-I and 77% on porcine renal DHP-I.

For the compound `C[C@@H](O)[C@H]1C(=O)N2C(C(=O)[O-])=C(c3cn4cnc([S+](C)[O-])c4s3)[C@H](C)[C@H]12.[Na+]` (stereo partly drawn) [Example 26, Sodium (1S,5R,6S)-6-((1R)-1-Hydroxyethyl)-2-(7-methanesulfinylimidazo[5,1-b]thiazol-2-yl)-1-methyl-1-carbapen-2-em-3-carboxylate], the “residual amounts (%) after 3 hours” value is on record as 11% at mouse DHP-I and 44% at porcine renal DHP-I. The MIC in the data set on E. hirae ATCC8043 is 0.78 µg/mL; in the data set on P. vulgaris GN7919, 0.2 µg/mL; in the data set on E. coli NIHJ JC-2, 0.05 µg/mL; with S. pneumoniae PRC9, 0.1 µg/mL; in the data set with M. catarrhalis W-0500, 0.05 µg/mL; in the data set on S. aureus 209P JC-1 it was less than 0.025 µg/mL. The MIC in the data set on E. faecalis W-73 was 0.39 µg/mL; with C. freundii GN346 it was 1.56 µg/mL; in the data set with H. influenzae PRC44, 0.05 µg/mL; in the data set on K. pneumoniae PCI602, 0.1 µg/mL; in the data set with H. influenzae PRC2, less than 0.025 µg/mL; in the data set with S. aureus M126, 6.25 µg/mL. The MIC with S. epidermidis ATCC14990 is less than 0.025 µg/mL.

Consider `CCC(=O)c1ncn2cc(C3=C(C(=O)[O-])N4C(=O)[C@H]([C@@H](C)O)[C@H]4C3)sc12.[Na+]` [Example 27, Sodium (5R,6S)-6-((1R)-1-Hydroxyethyl)-2-(7-propionylimidazo[5,1-b]thiazol-2-yl)-1-carbapen-2-em-3-carboxylate], for which the “residual amounts (%) after 3 hours” value on mouse DHP-I is 1.2%; on porcine renal DHP-I it was 38%. Besides, the MIC in the data set on E. hirae ATCC8043 is 0.39 µg/mL; in the data set with P. vulgaris GN7919, 0.2 µg/mL; in the data set with E. coli NIHJ JC-2, 0.2 µg/mL; with S. pneumoniae PRC9, 0.05 µg/mL; in the data set on M. catarrhalis W-0500, less than 0.025 µg/mL; in the data set on S. aureus 209P JC-1, 0.05 µg/mL. Also, the MIC was 0.1 µg/mL in the data set on E. faecalis W-73; 0.39 µg/mL in the data set on C. freundii GN346; 0.05 µg/mL with H. influenzae PRC44; 0.1 µg/mL in the data set on K. pneumoniae PCI602; less than 0.025 µg/mL in the data set on H. influenzae PRC2; 0.78 µg/mL in the data set with S. aureus M126. The MIC with S. epidermidis ATCC14990 amounted to 0.05 µg/mL.

Regarding `C[C@@H](O)[C@H]1C(=O)N2C(C(=O)[O-])=C(c3cn4cnc(C(=O)CO)c4s3)[C@H](C)[C@H]12.[Na+]` [Example 71, Sodium (1S,5R,6S)-2-(7-Hydroxyacetylimidazo[5,1-b]thiazol-2-yl)-6-((1R)-1-hydroxyethyl)-1-methyl-1-carbapen-2-em-3-carboxylate], the “residual amounts (%) after 3 hours” value at mouse DHP-I is given as less than 0.1%; at porcine renal DHP-I, 33%. Besides, the MIC was 0.39 µg/mL with E. hirae ATCC8043; less than 0.025 µg/mL with P. vulgaris GN7919; less than 0.025 µg/mL in the data set with E. coli NIHJ JC-2; 0.1 µg/mL in the data set with S. pneumoniae PRC9; less than 0.025 µg/mL in the data set on M. catarrhalis W-0500; less than 0.025 µg/mL in the data set on S. aureus 209P JC-1. For the same compound, the MIC is 0.39 µg/mL with E. faecalis W-73; 0.39 µg/mL in the data set on C. freundii GN346; 0.05 µg/mL in the data set with H. influenzae PRC44; less than 0.025 µg/mL in the data set with K. pneumoniae PCI602; less than 0.025 µg/mL with H. influenzae PRC2; 3.13 µg/mL with S. aureus M126. In the data set with S. epidermidis ATCC14990, the MIC is less than 0.025 µg/mL.

Turning to “(1R,5S,6S)-6-((1R)-1-hydroxyethyl)-1-methyl-2-[(3S,5S)-5-(6-methylimidazo[5,1-b]thiazolium-2-yl)methylpyrrolidin-3-yl]thiocarbapen-2-em-3-carboxylic acid iodide [Compound B, reference compound]”, the “minimum inhibiting concentrations (MIC)” value with E. hirae ATCC8043 was 1.56 µg/mL; in the data set on P. vulgaris GN7919, 0.10 µg/mL; with E. coli NIHJ JC-2 (setting [1]) it was 0.05 µg/mL; with S. pneumoniae PRC9, 0.39 µg/mL; in the data set with M. catarrhalis W-0500 (setting [1]), less than 0.025 µg/mL; in the data set with S. aureus 209P JC-1, less than 0.025 µg/mL. For the same compound, the “minimum inhibiting concentrations (MIC)” value in the data set with E. faecalis W-73 (setting [1]) was 3.13 µg/mL; in the data set with C. freundii GN346, 0.10 µg/mL; in the data set on H. influenzae PRC44, 0.78 µg/mL; in the data set on K. pneumoniae PCI602, 0.10 µg/mL; in the data set on H. influenzae PRC2, 0.10 µg/mL; in the data set on S. aureus M126, 6.25 µg/mL. In addition, in the data set with S. epidermidis ATCC14990, the “minimum inhibiting concentrations (MIC)” value worked out at 0.05 µg/mL.
